{
  "source": "paper PMC8454703",
  "about": "(Biochemical Journal, 2021)",
  "assay_in_all_cases": "SPR, protein over lipid vesicles on L1 chip",
  "format_in_all_cases": "binding",
  "key": {"sTIM-3 [1]": {"target": "T1, sTIM-3 (Homo sapiens, UniProt Q8TDQ0, I117A/M118A)", "T1 sequence (Q8TDQ0 22-202 I117A/M118A limits assumed)": "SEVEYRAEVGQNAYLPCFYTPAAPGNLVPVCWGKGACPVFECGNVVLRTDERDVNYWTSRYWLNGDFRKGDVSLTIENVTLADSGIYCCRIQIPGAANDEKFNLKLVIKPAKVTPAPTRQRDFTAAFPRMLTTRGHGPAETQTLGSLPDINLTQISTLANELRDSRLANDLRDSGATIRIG"}, "sTIM-3 [2]": {"target": "T2, sTIM-3 (Homo sapiens, UniProt Q8TDQ0, F61A)", "T2 sequence (Q8TDQ0 22-202 F61A limits assumed)": "T1 sequence (Q8TDQ0 22-202 I117A/M118A limits assumed) with F40A, A96I, A97M"}, "sTIM-3 [3]": {"target": "T3, sTIM-3 (Homo sapiens, UniProt Q8TDQ0)", "T3 sequence (Q8TDQ0 22-202 limits assumed)": "T1 sequence (Q8TDQ0 22-202 I117A/M118A limits assumed) with A96I, A97M"}, "sTIM-4": {"target": "T4, sTIM-4 (Homo sapiens, UniProt Q96H15)", "T4 sequence (Q96H15 25-314 limits assumed)": "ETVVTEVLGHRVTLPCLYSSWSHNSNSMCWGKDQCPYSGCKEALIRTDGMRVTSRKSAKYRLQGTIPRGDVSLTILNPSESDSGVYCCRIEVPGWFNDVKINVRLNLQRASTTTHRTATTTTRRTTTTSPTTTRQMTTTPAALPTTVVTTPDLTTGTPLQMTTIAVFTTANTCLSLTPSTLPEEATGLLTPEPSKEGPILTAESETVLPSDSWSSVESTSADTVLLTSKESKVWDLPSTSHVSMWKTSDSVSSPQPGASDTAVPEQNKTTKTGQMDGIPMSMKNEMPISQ"}, "sTIM-1": {"target": "T5, sTIM-1 (Homo sapiens, UniProt Q96D42)", "T5 sequence (Q96D42 21-295 limits assumed)": "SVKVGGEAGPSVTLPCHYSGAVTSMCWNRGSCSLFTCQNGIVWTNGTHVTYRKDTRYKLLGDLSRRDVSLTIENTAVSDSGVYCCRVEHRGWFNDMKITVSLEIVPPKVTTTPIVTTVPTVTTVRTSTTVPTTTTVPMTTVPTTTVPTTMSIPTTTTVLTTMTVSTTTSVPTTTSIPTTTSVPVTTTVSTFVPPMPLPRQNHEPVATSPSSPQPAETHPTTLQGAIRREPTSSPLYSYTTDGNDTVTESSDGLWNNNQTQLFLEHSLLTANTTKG"}},
  "note": "Changes are numbered by the printed parent chain.",
  "data": [
    {"smiles": "CCCCCCCC/C=C\\CCCCCCCC(=O)OC[C@H](COP(=O)(O)OC[C@H](N)C(=O)O)OC(=O)CCCCCCC/C=C\\CCCCCCCC", "note": "[DOPS]", "values": [
      {"measurement": "Kd", "setting": "sTIM-3 [1]", "result": "> 200", "unit": "µM"},
      {"measurement": "Kd", "setting": "sTIM-3 [2]", "result": "> 200", "unit": "µM"},
      {"measurement": "Kd", "setting": "sTIM-3 [3]", "result": "9.7 ± 4.2", "unit": "µM"},
      {"measurement": "Kd", "setting": "sTIM-4", "result": "770 ± 320", "unit": "nM"},
      {"measurement": "Kd", "setting": "sTIM-1", "result": "350 ± 50", "unit": "nM"}
    ]}
  ]
}
